From patent US20070092551A1, “Therapeutic agent” (TAKARA BIO INC., priority 2003, published 2007)

Key:
Type in all cases: cell-based
[1] = test system: mature adipocytes which were induced to be differentiated by xanthoangelol; experiment: Glucose uptake into adipocytes induced to be differentiated by xanthoangelol; details: stimulation with insulin 1 μg/mL; adipocytes differentiated with xanthoangelol 10 μM
Description: Adipocytes which were induced to be differentiated by xanthoangelol were obtained, and thereafter it was confirmed on whether the glucose uptake into the adipocytes is enhanced by stimulation with insulin or 4-hydroxyderricin.
Specifically, as a sample, there was set a group with addition of a dimethyl sulfoxide solution of xanthoangelol having a final concentration of 10 μM. Thereafter, the medium and the sample were exchanged in the same manner as in the method described in Example 82 except that 3-isobutyl-1-methylxanthine having a final concentration of 0.5 mM was added concurrently with the addition of dexamethasone, to give mature adipocytes which were induced to be differentiated by xanthoangelol.
Next, the amount of 2-deoxyglucose uptake into the mature adipocytes during the stimulation with insulin or 4-hydroxyderricin in the resulting mature adipocytes was determined in the same manner as in the method described in Example 83.
Specifically, there were set the group without the addition and the group with addition of insulin having a final concentration of 1 μg/mL or 4-hydroxyderricin having a final concentration of 20 μM. Thereafter, the amount of 2-deoxy-[1,2-^3H(N)]-glucose uptake into the adipocytes was determined in the same manner.

[2] = test system: insulin-resistant mature adipocytes; experiment: Enhancing action on glucose uptake into insulin-resistant (TNF-α treated) mature adipocytes; details: group treated with insulin; mature adipocytes treated with mouse-derived TNF-α 10 or 20 ng/mL
Description: It is said that tumor necrosis factor a (TNF-α) is deeply involved in insulin resistance, and it has been known that a signal from an insulin receptor is inhibited by treating mature adipocytes with TNF-α, so that a reaction of glucose uptake is inhibited by insulin stimulation (Proc. Natl. Acad. Sci. USA, vol. 91, p 4854-4858 (1994)). The enhancing action by 4-hydroxyderricin on glucose uptake into mature adipocytes in which insulin resistance was induced by TNF-α was evaluated.
The induction of differentiation into mature adipocytes was carried out in the same manner as in the method described in Example 83, except that after preparation of the mature adipocytes, in order to induce insulin resistance in these mature adipocytes, mouse-derived TNF-α (manufactured by Cosmobio, 3410) was added to the medium so as to have a final concentration of 10 ng/mL or 20 ng/mL, and the adipocytes were cultured for additional 2 days. […]
The enhancing action on glucose uptake was evaluated in the same manner as in the method described in Example 83. For each of the cells prepared in item (1) of Example 95 mentioned above, there were set a group containing 4-hydroxyderricin at a final concentration of 30 μM, a group without addition of the sample as a negative control, and a group with treatment with insulin, and the radioactivity of each group was determined. […]

[3] = molecular target: T1, fusion protein of an yeast GAL4 DNA-binding domain and a human PPARγ ligand-binding site (Homo sapiens, UniProt P37231); experiment: PPARγ activation reporter assay in CV-1 cells; details: test compound 10 μM, pFA-CMV (PPARγ), 24 hours
T1 construct: expressed in transfected cells; host or cells: CV-1 cells
T1 sequence (P37231 204-505): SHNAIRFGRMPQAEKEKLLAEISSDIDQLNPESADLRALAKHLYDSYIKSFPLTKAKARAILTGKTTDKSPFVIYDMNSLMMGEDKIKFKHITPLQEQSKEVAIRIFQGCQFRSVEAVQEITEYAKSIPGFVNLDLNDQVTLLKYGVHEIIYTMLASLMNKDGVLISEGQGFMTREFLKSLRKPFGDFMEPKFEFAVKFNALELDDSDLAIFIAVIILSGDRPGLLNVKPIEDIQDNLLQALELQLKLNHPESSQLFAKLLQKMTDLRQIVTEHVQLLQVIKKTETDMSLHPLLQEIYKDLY
Description: The activation ability for PPARγ was determined by a reporter assay using a fusion protein of an yeast GAL4 DNA-binding domain and a human PPARγ ligand-binding site.
A plasmid (pGAL4/GL3-Promoter) was prepared by repeating five times insertion of a binding site (UASg) of GAL4 into a multicloning site of a pGL3-Promoter vector (Promega). In addition, a ligand-binding site (amino acid sequence 204 to 505) of the PPARγ gene was cloned from a human liver cDNA library (manufactured by TAKARA BIO INC.) by a polymerase chain reaction, and the ligand-binding site was inserted into a multicloning site of a pFA-CMV plasmid vector ([…]) to give pFA-CMV (PPARγ).
Escherichia coli JM-109 strain was transformed with each of the two kinds of the plasmids obtained by the above-mentioned procedures, and pFA-CMV and pRL-TK (Promega) according to a conventional method. Each of the Escherichia coli cells was cultured with shaking at 37° C. for 18 hours in an LB medium containing 100 μg/mL ampicillin. Thereafter, the plasmids of each were purified according to the procedure manual of QIAfilter Plasmid midi Kit (QIAGEN).
CV-1 cells were seeded in a 24-well plate so as to have a density of 4×10^4 cells per well. Thereafter, the cells were cultured in a Dulbecco's modified Eagle's medium (manufactured by Sigma, D5796) containing 10% fetal bovine serine (manufactured by Bio Whittaker) for 24 hours under the conditions of 37° C. and 5% CO2. Thereafter, in accordance with the procedure manual of LipofectAmine 2000 (Invitrogen), the gene transfer was carried out into the CV-1 cells with 200 ng of pFA-CMV (PPARγ) or pFA-CMV, 400 ng of pGAL4/GL3-promoter, and 200 ng of pRL-TK per well, and thereafter the cells were cultured for 24 hours under the conditions of 37° C. and 5% CO2. Thereafter, the medium was exchanged with a Dulbecco's modified Eagle's medium to which a test compound dissolved in dimethyl sulfoxide was previously added so as to have a final concentration of 10 μM. Thereafter, the cells were cultured for additional 24 hours. In addition, there were set a group with addition of dimethyl sulfoxide in place of a test compound as a negative control, and a group with addition of troglytazone (manufactured by Calbiochem) so as to have a final concentration of 3 μM as a positive control. The cells were washed with a phosphate buffered saline, and 5× PassiveLysisBuffer (Promega) which was previously diluted in 5-folds with distilled water was added thereto in an amount of 100 μL per well. The mixture was shaken at room temperature for 15 minutes to lyse cells. Twenty microliters of this lysed solution was applied in accordance with the procedure manual of Dual Luciferase Assay System (Promega), and a fluorescent luciferase emission intensity and a Renilla mullerei luciferase emission intensity were measured using Mithras-LB940 (BERTHOLD TECHNOLOGIES GmbH). The enhancing action for transcriptional activation of each test compound was shown as a relative value obtained by calculating a ratio of the fluorescent luciferase emission intensity to the Renilla mullerei luciferase emission intensity, wherein the value of the group with addition of the negative control is defined as 1.

[4] = test system: 3T3-L1 cells; experiment: Induction of adipocyte differentiation (amount of triglyceride biosynthesis); details: Mus musculus, 3T3-L1, X=(S−N)/(P−N) of amount of triglyceride, P=insulin positive control, read-out: Action for Induction of Differentiation
In short: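 Differentiation scored as X=(S−N)/(P−N), ranked +++, ++, +, +/−, where S, N and P are triglyceride with compound, DMSO and insulin; triglyceride was extracted with hexane:isopropanol (3:2) and assayed twice. Compound was added after 7 days' growth, first with 0.25 μM dexamethasone (45 h), then for 7 days.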

[5] = test system: mature adipocytes (3T3-L1 cells); experiment: Glucose uptake enhancement inhibited by cytochalasin B; details: cytochalasin B 40 μM added to the 4-hydroxyderricin 7.8 μM, insulin 1 μg/mL and negative control groups
Description: The influence of cytochalasin B on 2-deoxyglucose uptake into matured adipocytes during the stimulation with the sample in the adipocytes was tested in accordance with the method shown in Example 83 on whether or not the enhancing action of 4-hydroxyderricin on glucose uptake shown in Example 83 is inhibited by cytochalasin B, which is an inhibitor of a glucose transporter.
Specifically, as a sample, a group with addition of a dimethyl sulfoxide solution of 4-hydroxyderricin so as to have a final concentration of 7.8 μM was set. Here, there were set a group without addition of the sample as a negative control and a group with addition of insulin so as to have a final concentration of 1 μg/mL as a positive control. Furthermore, there was set a group with addition of cytochalasin B (manufactured by nacalai tesque, 10435-81) to each group so as to have a final concentration of 40 μM in the same time as the time of addition of insulin. Thereafter, 2-deoxy-[1,2-^3H(N)]-glucose subjected to uptake into the adipocytes was determined in the same manner.

[6] = test system: mature adipocytes (3T3-L1 cells); experiment: Enhancing action on glucose uptake (2-deoxyglucose) into mature adipocytes; details: Mus musculus, 3T3-L1, X=(S−N)/(P−N) of 2-deoxyglucose uptake, P=insulin 1 μg/mL, read-out: Enhancing Action on Glucose Uptake

Row | Compound | activation at 10 µM [4] | activation at 3 µM [6] | activation at 10 µM [6] | activation at 30 µM [6] | also measured
1 | insulin: insulin (manufactured by TAKARA BIO INC.), positive control | – | – | – | – | 2-deoxy-[1,2-3H(N)]-glucose uptake [1]: enhancement of 2-deoxy-[1,2-^3H(N)]-glucose uptake; enhancing action on glucose uptake, increase without TNF-α defined as 100% [2]: around 40%
2 | COc1cc(O)c(CC=C(C)C)c(O)c1C(=O)/C=C/c1ccc(O)cc1 [Xanthohumol, 4,2′,4′-trihydroxy-3′-prenyl-6′-methoxychalcone] | – | – | – | – | enhancing action for transcriptional activation (PPARγ) [3]: no enhancing action for transcriptional activation was found; activation at 4 µM ([4]; 4 μM): 15 to 30%; activation at 13 µM ([4]; 13 μM): 30 to 60%
3 | C=C1[C@@H](C)[C@H]2[C@H](Cc3ccccc3)NC(=O)[C@]23OC(=O)/C=C/[C@H](O)CCC[C@@H](C)C/C=C/[C@H]3[C@@H]1O [cytochalasin B, reference compound] | – | – | – | – | 2-deoxy-[1,2-3H(N)]-glucose uptake on addition of cytochalasin B [5]: almost completely inhibited
4 | COc1ccc(C(C)=O)c(O)c1Cc1ccccc1 [Compound (C055), 2′-hydroxy-3′-benzyl-4′-methoxyacetophenone] | 30 to 60% | 15 to 30% | 30 to 60% | 60 to 100% | activation at 3 µM [4]: 15 to 30%
5 | CCOc1ccc(C(C)=O)c(O)c1CC=C(C)C [Compound (C047), 2′-hydroxy-3′-prenyl-4′-ethoxyacetophenone] | 30 to 60% | 30 to 60% | 60 to 100% | > 100% | activation at 30 µM ([4]; 30 μM): 60 to 100%
6 | COc1ccc(C(C)=O)c(O)c1C/C=C(\C)CC/C=C(\C)CCC=C(C)C [Compound (C052), 2′-hydroxy-3′-farnesyl-4′-methoxyacetophenone] | 30 to 60% | 15 to 30% | 30 to 60% | 30 to 60% | –
7 | COc1ccc(C(=O)/C=C/c2ccc(O)cc2)c(O)c1C/C=C(\C)C/C=C/C(C)(C)OO [TB8, 1-[2-hydroxy-3-(7-hydroperoxy-3,7-dimethyl-2,5-octadienyl)-4-methoxyphenyl]-3-(4-hydroxyphenyl)-2-propen-1-one] | > 100% | 15 to 30% | 60 to 100% | 60 to 100% | activation at 3 µM [4]: 30 to 60%
